Here are results for 28 compounds from patent US10766903B2 (ALMAC DISCOVERY LIMITED, priority 2016, dated 2020).

This experiment deals with USP7 (Homo sapiens (Human), UniProt Q93009). Briefly: USP7 fluorescence polarisation (FP) biochemical assay, ubiquitin-Lys-TAMRA substrate. The method, boiled down:
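Full-length His6-USP7 (2.5 nM) incubated ± inhibitor (8-point dilutions, 200 to 0.1 μM before addition) in 50 mM HEPES pH 7.2, 150 mM NaCl, 0.5 mM EDTA, 5 mM DTT, 0.05% BSA, 0.05% CHAPS. Ubiquitin-Lys-TAMRA cleavage followed by FP (ex 530/em 575 nm) every 15 min for 1.5 h; normalised to no-compound control.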
(In general: Fluorescence polarisation rises when a labelled molecule tumbles more slowly, as on binding a larger partner.)

Setting [1] is: Table 4, biochemical assay, average of at least duplicate experiments, read-out: USP7 IC50.

Read-outs that look alike come from different tables or passages of the source.

Sequence of USP7 (Q93009 whole entry): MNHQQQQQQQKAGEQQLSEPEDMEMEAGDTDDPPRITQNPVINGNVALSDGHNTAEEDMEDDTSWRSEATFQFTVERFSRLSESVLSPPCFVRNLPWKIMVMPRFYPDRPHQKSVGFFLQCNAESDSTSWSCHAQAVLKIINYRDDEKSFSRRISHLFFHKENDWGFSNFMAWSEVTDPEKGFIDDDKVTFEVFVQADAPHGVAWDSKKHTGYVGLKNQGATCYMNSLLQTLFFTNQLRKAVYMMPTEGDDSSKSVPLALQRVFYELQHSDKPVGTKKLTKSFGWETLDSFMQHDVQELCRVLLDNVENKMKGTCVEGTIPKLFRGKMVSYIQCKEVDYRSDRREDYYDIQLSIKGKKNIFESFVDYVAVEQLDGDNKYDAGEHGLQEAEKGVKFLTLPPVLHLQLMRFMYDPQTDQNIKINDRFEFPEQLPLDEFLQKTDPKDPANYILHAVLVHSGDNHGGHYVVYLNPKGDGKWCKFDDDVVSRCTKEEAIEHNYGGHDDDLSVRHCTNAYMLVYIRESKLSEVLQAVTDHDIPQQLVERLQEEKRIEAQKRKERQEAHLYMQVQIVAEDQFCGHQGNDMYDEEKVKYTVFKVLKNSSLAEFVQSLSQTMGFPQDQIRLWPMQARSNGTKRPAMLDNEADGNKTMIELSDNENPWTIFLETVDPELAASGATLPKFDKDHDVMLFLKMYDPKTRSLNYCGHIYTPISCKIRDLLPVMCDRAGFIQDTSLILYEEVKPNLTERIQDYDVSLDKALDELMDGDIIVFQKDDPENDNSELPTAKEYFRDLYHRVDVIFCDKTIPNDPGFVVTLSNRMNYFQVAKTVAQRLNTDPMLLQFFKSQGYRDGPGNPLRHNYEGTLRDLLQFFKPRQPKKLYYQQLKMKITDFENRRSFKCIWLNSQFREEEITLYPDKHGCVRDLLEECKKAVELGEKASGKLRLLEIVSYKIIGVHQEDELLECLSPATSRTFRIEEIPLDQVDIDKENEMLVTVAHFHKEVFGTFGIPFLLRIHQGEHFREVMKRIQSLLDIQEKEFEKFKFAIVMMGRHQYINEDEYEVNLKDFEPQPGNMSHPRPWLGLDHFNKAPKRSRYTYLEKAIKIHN

Usually IC50 stands for the concentration needed to halve the response being measured. As for `Cn1nc2c(=O)n(CC3(O)CCN(C(=O)c4cnc(C5CC5)o4)CC3)cnc2c1-c1ccc(CN)cc1` [Example 238, 3-(4-(Aminomethyl)phenyl)-6-((1-(2-cyclopropyloxazole-5-carbonyl)-4-hydroxypiperidin-4-yl)methyl)-2-methyl-2,6-dihydro-7H-pyrazolo[4,3-d]pyrimidin-7-one], the concentration for half-maximal inhibition (IC50) under setting [1] was in the range of 250 to 999 nM.

In the case of `Cn1cc(-c2cc(-n3c(Cl)cc4c(=O)n(CC5(O)CCN(C(=O)C6(C)CC6)CC5)cnc43)ccc2F)cn1` [Example 233, 6-Chloro-7-(4-fluoro-3-(1-methyl-1H-pyrazol-4-yl)phenyl)-3-((4-hydroxy-1-(1-methylcyclopropanecarbonyl)piperidin-4-yl)methyl)-3H-pyrrolo[2,3-d]pyrimidin-4(7H)-one], the concentration for half-maximal inhibition (IC50) under setting [1] is under 250 nM.

Consider `C[C@H](CC(=O)N1CCC(O)(Cn2cnc(NC[C@H]3CCCN3C)cc2=O)CC1)c1ccccc1` [Example 65, 3-((4-Hydroxy-1-((R)-3-phenylbutanoyl)piperidin-4-yl)methyl)-6-((((R)-1-methylpyrrolidin-2-yl)methyl)amino)pyrimidin-4(3H)-one, Formic Acid], for which the IC50 under setting [1] was in the range of 250 to 999 nM.

As for `C[C@H](CC(=O)N1CCC(O)(Cn2cnc(NCCNc3nccc(C(F)(F)F)n3)cc2=O)CC1)c1ccccc1` [Example 145, (R)-3-((4-hydroxy-1-(3-phenylbutanoyl)piperidin-4-yl)methyl)-6-((2-((4-(trifluoromethyl)pyrimidin-2-yl)amino)ethyl)amino)pyrimidin-4(3H)-one], the IC50 under setting [1] lay in the range of 1000 to 200000 nM.

For the compound `C[C@H](CC(=O)N1CCC(O)(Cn2cnc(N3CC4(CCCO4)C3)cc2=O)CC1)c1ccccc1` [Example 169, (R)-3-((4-hydroxy-1-(3-phenylbutanoyl)piperidin-4-yl)methyl)-6-(5-oxa-2-azaspiro[3.4]octan-2-yl)pyrimidin-4(3H)-one], the IC50 under setting [1] lay within 1000 to 200000 nM.

As to `C[C@H](CC(=O)N1CCC(O)(Cn2cnc(Cl)c(N)c2=O)CC1)c1ccccc1` [Example 14, (R)-5-Amino-6-chloro-3-((4-hydroxy-1-(3-phenylbutanoyl)piperidin-4-yl)methyl)pyrimidin-4(3H)-one], the IC50 under setting [1] fell in the range of 1000 to 200000 nM.

Take `COCC1CN(c2cc(=O)n(CC3(O)CCN(C(=O)C[C@@H](C)c4ccccc4)CC3)cn2)C1` [Example 141, (R)-3-((4-hydroxy-1-(3-phenylbutanoyl)piperidin-4-yl)methyl)-6-(3-(methoxymethyl)azetidin-1-yl)pyrimidin-4(3H)-one]: the IC50 under setting [1] lay in the range of 1000 to 200000 nM.

On to `C[C@H](CC(=O)N1CCC(O)(Cn2cnc(N3CCC(O)CC3)cc2=O)CC1)c1ccccc1` [Example 144, (R)-3-((4-hydroxy-1-(3-phenylbutanoyl)piperidin-4-yl)methyl)-6-(4-hydroxypiperidin-1-yl)pyrimidin-4(3H)-one], for which the IC50 under setting [1] was in the range of 1000 to 200000 nM.

On to `C[C@H](CC(=O)N1CCC(O)(Cn2cnc3cn(C)nc3c2=O)CC1)c1ccccc1` [Example 20, (R)-6-((4-Hydroxy-1-(3-phenylbutanoyl)piperidin-4-yl)methyl)-2-methyl-2H-pyrazolo[4,3-d]pyrimidin-7(6H)-one], for which the IC50 was 3000 nM (Table 3, effect of the R2 substituent, read-out: USP7 IC50) and 1000 to 200000 nM under setting [1].

As to `Cn1nc2c(=O)n(CC3(O)CCN(C(=O)C[C@H](c4ccc(F)cc4)C(F)(F)F)CC3)cnc2c1-c1ccc(CN)cc1` [Example 85, (R)-3-(4-(Aminomethyl)phenyl)-6-((4-hydroxy-1-(4,4,4-trifluoro-3-(4-fluorophenyl)butanoyl)piperidin-4-yl)methyl)-2-methyl-2H-pyrazolo[4,3-d]pyrimidin-7(6H)-one], under setting [1], the IC50 is under 250 nM.

Turning to `C[C@H](CC(=O)N1CCC(O)(C(O)c2cnc3ccccn3c2=O)CC1)c1ccccc1` (stereo partly drawn) [Example 101, 3-(Hydroxy(4-hydroxy-1-((R)-3-phenylbutanoyl)piperidin-4-yl)methyl)-4H-pyrido[1,2-a]pyrimidin-4-one], under setting [1], the IC50 was 1000 to 200000 nM.

On to `Cn1nc2c(=O)n(CC3(O)CCN(C(=O)C[C@H](c4ccccc4)C(F)(F)F)CC3)cnc2c1-c1ccc(CCN)cc1` [Example 87, (R)-3-(4-(2-Aminoethyl)phenyl)-6-((4-hydroxy-1-(4,4,4-trifluoro-3-phenylbutanoyl)piperidin-4-yl)methyl)-2-methyl-2H-pyrazolo[4,3-d]pyrimidin-7(6H)-one], for which, under setting [1], the IC50 is under 250 nM.

`C[C@H](CC(=O)N1CCC(O)(Cn2cnc(N(C)CCO)cc2=O)CC1)c1ccccc1` [Example 166, (R)-3-((4-hydroxy-1-(3-phenylbutanoyl)piperidin-4-yl)methyl)-6-((2-hydroxyethyl)(methyl)amino)pyrimidin-4(3H)-one]: under setting [1], the IC50 was in the range of 1000 to 200000 nM.

`Cn1nc2c(=O)n(CC3(O)CCN(C(=O)C[C@H](c4ccccc4)C(F)(F)F)CC3)cnc2c1-c1ccc([C@H](N)C(F)(F)F)cc1` [Example 119, 3-(4-((S)-1-Amino-2,2,2-trifluoroethyl)phenyl)-6-((4-hydroxy-1-((R)-4,4,4-trifluoro-3-phenylbutanoyl)piperidin-4-yl)methyl)-2-methyl-2H-pyrazolo[4,3-d]pyrimidin-7(6H)-one]: under setting [1], the IC50 was under 250 nM.

As for `CC1(C(=O)N2CCC(O)(Cn3cnc4c(cc(Cl)n4-c4cccc(-n5cc(F)cn5)c4)c3=O)CC2)CC1` [Example 227, 6-Chloro-7-(3-(4-fluoro-1H-pyrazol-1-yl)phenyl)-3-((4-hydroxy-1-(1-methylcyclopropanecarbonyl)piperidin-4-yl)methyl)-3H-pyrrolo[2,3-d]pyrimidin-4(7H)-one], the IC50 under setting [1] is under 250 nM.

As for `C[C@H](CC(=O)N1CCC(O)(CN2C(=O)Cc3ccccc32)CC1)c1ccccc1` [Example 126, (R)-1-((4-Hydroxy-1-(3-phenylbutanoyl)piperidin-4-yl)methyl)indolin-2-one], the IC50 under setting [1] was in the range of 1000 to 200000 nM.

Consider `O=C(c1cnc(C2CC2)o1)N1CCC(O)(Cn2cnc3c(cc(Br)n3-c3ccccc3)c2=O)CC1` [Example 222, 6-Bromo-3-((1-(2-cyclopropyloxazole-5-carbonyl)-4-hydroxypiperidin-4-yl)methyl)-7-phenyl-3H-pyrrolo[2,3-d]pyrimidin-4(7H)-one], for which, under setting [1], the IC50 was under 250 nM.

For the compound `Cc1nc2c(=O)n(CC3(O)CCN(C(=O)C[C@H](c4ccccc4)C(F)(F)F)CC3)cnc2n1-c1ccc(CN)cc1` [Example 78, (R)-9-(4-(Aminomethyl)phenyl)-1-((4-hydroxy-1-(4,4,4-trifluoro-3-phenylbutanoyl)piperidin-4-yl)methyl)-8-methyl-1H-purin-6(9H)-one], the IC50 under setting [1] was under 250 nM.

In the case of `C[C@H](CC(=O)N1CCC(O)(Cn2cnc(N3CC4(CN(C)CCO4)C3)cc2=O)CC1)c1ccccc1` [Example 171, (R)-3-((4-hydroxy-1-(3-phenylbutanoyl)piperidin-4-yl)methyl)-6-(8-methyl-5-oxa-2,8-diazaspiro[3.5]nonan-2-yl)pyrimidin-4(3H)-one], the IC50 under setting [1] fell in the range of 1000 to 200000 nM.

`C[C@H](CC(=O)N1CCC(O)(Cn2cnc(N3CCC4(COC4)C3)cc2=O)CC1)c1ccccc1` [Example 179, (R)-3-((4-hydroxy-1-(3-phenylbutanoyl)piperidin-4-yl)methyl)-6-(2-oxa-6-azaspiro[3.4]octan-6-yl)pyrimidin-4(3H)-one]: the IC50 (USP7 IC50, Table 4, biochemical assay, average of at least duplicate experiments) was 250 to 999 nM.

For `Cn1nc2c(=O)n(CC3(O)CCN(C(=O)C[C@H](c4ccccc4)C(F)(F)F)CC3)cnc2c1-c1ccc(CN)c(C(F)(F)F)c1` [Example 123, (R)-3-(4-(Aminomethyl)-3-(trifluoromethyl)phenyl)-6-((4-hydroxy-1-(4,4,4-trifluoro-3-phenylbutanoyl)piperidin-4-yl)methyl)-2-methyl-2H-pyrazolo[4,3-d]pyrimidin-7(6H)-one], the IC50 under setting [1] was under 250 nM.

In the case of `C[C@H](CC(=O)N1CCC(O)(Cn2cnc(N3CCC[C@H](N(C)C)C3)cc2=O)CC1)c1ccccc1` [Example 50, 6-((S)-3-(Dimethylamino)piperidin-1-yl)-3-((4-hydroxy-1-((R)-3-phenylbutanoyl)piperidin-4-yl)methyl)pyrimidin-4(3H)-one], the IC50 under setting [1] is under 250 nM.

With `O=C(CCC1CCC1)N1CCC(O)(Cn2cnc(NCCN3CCCC3)cc2=O)CC1` [Example 183, 3-((1-(3-Cyclobutylpropanoyl)-4-hydroxypiperidin-4-yl)methyl)-6-((2-(pyrrolidin-1-yl)ethyl)amino)pyrimidin-4(3H)-one], the IC50 under setting [1] was 1000 to 200000 nM.

As to `CC(=O)N1CCC(O)(Cn2cnc(NCCN3CCCC3)cc2=O)CC1` [Example 132, 3-((1-Acetyl-4-hydroxypiperidin-4-yl)methyl)-6-((2-(pyrrolidin-1-yl)ethyl)amino)pyrimidin-4(3H)-one], the half-maximal inhibitory concentration (IC50) under setting [1] lay in the range of 1000 to 200000 nM.

Take `CC(=O)N1CCC(O)(Cn2cnc3c(-c4ccccc4)n(C)nc3c2=O)CC1` [Example 131, 6-((1-Acetyl-4-hydroxypiperidin-4-yl)methyl)-2-methyl-3-phenyl-2H-pyrazolo[4,3-d]pyrimidin-7(6H)-one]: the IC50 under setting [1] was in the range of 1000 to 200000 nM.

Consider `O=C(CC(C1CC1)C1CC1)N1CCC(O)(Cn2cnc(NCCN3CCCC3)cc2=O)CC1` [Example 133, 3-((1-(3,3-Dicyclopropylpropanoyl)-4-hydroxypiperidin-4-yl)methyl)-6-((2-(pyrrolidin-1-yl)ethyl)amino)pyrimidin-4(3H)-one], for which the IC50 under setting [1] is 250 to 999 nM.

Regarding `C[C@H](CC(=O)N1CCC(O)(Cn2cnc3c(nc(-c4ccccc4)n3C)c2=O)CC1)c1ccccc1` [Example 16, (R)-1-((4-Hydroxy-1-(3-phenylbutanoyl)piperidin-4-yl)methyl)-9-methyl-8-phenyl-1H-purin-6(9H)-one], the IC50 under setting [1] is 1000 to 200000 nM.

For the compound `O=C(c1cnc(C2CC2)o1)N1CCC(O)(Cn2cnc3c(cc(Cl)n3-c3ccc(Cl)cc3)c2=O)CC1` [Example 228, 6-Chloro-7-(4-chlorophenyl)-3-((1-(2-cyclopropyloxazole-5-carbonyl)-4-hydroxypiperidin-4-yl)methyl)-3H-pyrrolo[2,3-d]pyrimidin-4(7H)-one], under setting [1], the IC50 is under 250 nM.
